In patent US6632803B1, “Pharmaceutical formulations containing voriconazole” (Pfizer Inc, priority 1997, dated 2003):
Converted amounts (≈) assume the structure as drawn.

How the values were obtained:
Assay type in all cases: physicochemical
[1] = aqueous solubility of voriconazole; settings: aqueous solution, pH 3, aqueous buffer
[2] = log D of voriconazole
[3] = stability in water; settings: inactive enantiomer formed from recombination of retro-aldol products of hydrolysis

solubility [1]: 200 µg/mL (≈ 573 µM) | logD [2]: 1.8 | stability in water [3]: not stable in water
Compound: C[C@@H](c1ncncc1F)[C@](O)(Cn1cncn1)c1ccc(F)cc1F [Voriconazole]
